# Entries after “also recorded” stand apart in the source; their conditions may differ. Where two headings read alike, the source gives them in different places.
# Assays:
# DENV3 NS5 MTase [1] = molecular target: T1, DENV3 NS5 MTase (Dengue virus type 3, UniProt Q6YMS4); assay: FL-NAH FP displacement assay, DENV3 NS5; assay type: binding
# SARS-CoV-2 = conditions: read-out: Antiviral EC50; Vero cells, plaques at 72 h post-infection
# SARS-CoV-2 NSP14 MTase [2] = molecular target: T2, SARS-CoV-2 NSP14 MTase (Severe acute respiratory syndrome coronavirus 2, UniProt P0DTD1); conditions: read-out: IC50-TLC, NSP14 MTase activity
# DENV2 = assay: Antiviral immunofluorescence assay (IFA), DENV2; assay type: cell-based
# DENV3 NS5 MTase [3] = molecular target: T1, DENV3 NS5 MTase; conditions: MST
# ZIKV = assay: Antiviral immunofluorescence assay (IFA), ZIKV; assay type: cell-based
# [4] = test system: SARS-CoV-2 WT strain (Washington strain); assay: Immunofluorescence assay, SARS-CoV-2 WT Washington strain; assay type: cell-based; conditions: Vero E6, WT Washington strain 0.01 MOI, 24 h
# WNV N7 MTase = WNV N7 MTase (West Nile virus, UniProt Q9Q6P4); assay type: biochemical
# WNV N7 MTase, sequence (Q9Q6P4 2529-2794 limits assumed): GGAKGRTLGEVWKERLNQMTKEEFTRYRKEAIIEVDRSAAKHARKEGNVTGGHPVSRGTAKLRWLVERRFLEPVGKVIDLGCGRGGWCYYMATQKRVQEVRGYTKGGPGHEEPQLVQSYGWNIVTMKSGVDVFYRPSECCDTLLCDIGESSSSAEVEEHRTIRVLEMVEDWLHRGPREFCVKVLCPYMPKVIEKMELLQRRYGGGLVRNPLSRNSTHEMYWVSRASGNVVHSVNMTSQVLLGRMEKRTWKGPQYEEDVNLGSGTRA
# SARS-CoV-2 NSP14 MTase [5] = molecular target: T2, SARS-CoV-2 NSP14 MTase; conditions: read-out: IC50-MS, NSP14 MTase activity
# SARS-CoV-2 NSP14 MTase [6] = molecular target: T2, SARS-CoV-2 NSP14 MTase; assay type: binding; conditions: for IC50: 50 nM FL-NAH, NSP14 MTase, read-out: IC50-disp, inhibition of FL-NAH binding
# WNV MTase [7] = molecular target: T3, WNV MTase (West Nile virus, UniProt Q9Q6P4); assay type: binding
# T3 sequence (Q9Q6P4 2529-2794 limits assumed): as above
# [8] = molecular target: SARS-CoV-2 NSP14 N7-MTase (Severe acute respiratory syndrome coronavirus 2, UniProt P0DTD1); conditions: read-out: IC50-HTRF, NSP14 MTase activity; GpppA dinucleotide substrate
# [9] = test system: human lung carcinoma A549 cells; assay: WST-8 cytotoxicity assay in A549 cells; assay type: cell-based
# Procedure: As previously mentioned, cytotoxicity to the human lung carcinoma A549 cells was assessed using a WST-8 cell proliferation assay kit (Dojindo Molecular Technologies, Inc.).
# To further characterize these candidate inhibitors, we investigated the cytotoxicity of NSC 111552 and 288387 to human A549 lung carcinoma cells, using a WST-8 cell viability kit, as we described previously.
# DENV2 replicon = conditions: read-out: EC50-DENV2 Replic; DENV2 replicon cell line
# DENV3 NS5 N7 MTase = DENV3 NS5 N7 MTase (Dengue virus type 3, UniProt Q6YMS4); assay: HTRF MTase functional assay, DENV3; assay type: biochemical
# DENV3 NS5 N7 MTase, sequence (Q6YMS4 2492-2753): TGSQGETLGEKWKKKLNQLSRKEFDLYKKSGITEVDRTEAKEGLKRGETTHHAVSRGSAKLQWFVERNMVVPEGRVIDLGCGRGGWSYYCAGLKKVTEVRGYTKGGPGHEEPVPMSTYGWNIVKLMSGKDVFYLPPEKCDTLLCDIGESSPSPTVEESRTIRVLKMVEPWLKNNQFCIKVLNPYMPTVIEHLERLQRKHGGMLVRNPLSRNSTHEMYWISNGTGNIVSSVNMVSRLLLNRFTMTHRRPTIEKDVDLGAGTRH
# DENV3 MTase [10] = molecular target: T4, DENV3 MTase (Dengue virus type 3, UniProt Q6YMS4); assay: TLC MTase activity assay, DENV3; assay type: biochemical
# T4 sequence (Q6YMS4 2492-2753): as above
# YFV MTase [11] = molecular target: T5, YFV MTase (Yellow fever virus, UniProt P03314); conditions: read-out: IC50-disp
# T5 sequence (P03314 2507-2771 limits assumed): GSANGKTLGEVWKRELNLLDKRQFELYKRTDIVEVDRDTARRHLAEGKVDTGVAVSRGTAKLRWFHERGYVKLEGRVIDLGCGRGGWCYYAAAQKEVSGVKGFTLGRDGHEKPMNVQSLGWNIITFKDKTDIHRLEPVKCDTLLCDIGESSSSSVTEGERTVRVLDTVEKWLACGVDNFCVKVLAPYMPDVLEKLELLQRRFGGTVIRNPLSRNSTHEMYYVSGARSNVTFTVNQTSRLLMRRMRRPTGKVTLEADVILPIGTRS
# ZIKV NS5 MTase = ZIKV NS5 MTase (Zika virus, UniProt A0A024B7W1); assay type: binding
# ZIKV NS5 MTase, sequence (A0A024B7W1 2521-2785 limits assumed): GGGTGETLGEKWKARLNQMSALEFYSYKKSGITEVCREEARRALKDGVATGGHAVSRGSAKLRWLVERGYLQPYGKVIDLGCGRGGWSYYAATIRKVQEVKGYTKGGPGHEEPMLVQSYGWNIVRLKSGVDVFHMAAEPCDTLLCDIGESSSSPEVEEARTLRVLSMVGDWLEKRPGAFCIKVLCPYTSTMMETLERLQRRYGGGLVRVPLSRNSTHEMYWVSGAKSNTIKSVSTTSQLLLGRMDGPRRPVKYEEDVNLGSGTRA
# YFV N7 MTase = YFV N7 MTase (Yellow fever virus, UniProt P03314); conditions: read-out: IC50-HTRF
# YFV N7 MTase, sequence (P03314 2507-2771 limits assumed): as the sequence (P03314 2507-2771 limits assumed) above
# [12] = test system: SARS-CoV-2 Omicron strain (BA.1.1); assay: Immunofluorescence assay, SARS-CoV-2 Omicron strain; assay type: cell-based
# ZIKV N7 MTase = ZIKV N7 MTase (Zika virus, UniProt A0A024B7W1); assay type: biochemical
# ZIKV N7 MTase, sequence (A0A024B7W1 2521-2785 limits assumed): as the sequence (A0A024B7W1 2521-2785 limits assumed) above
# SARS-CoV-2 WA strain = assay: Checkerboard compound combination assay (plaque) in Vero-E6 cells; assay type: cell-based
# Procedure: The 2D compound-compound interactions were determined by checkerboard titration in a 96-well plate. Vero-E6 cells were seeded one day before combination test at 3×10^4 cells/each well. The first compound (A) was serially diluted along the x axis (columns 3 to 8); and the second compound (B) was serially diluted along the y axis (from row A to F) in the 96-well plate. The last two columns (columns 9 and 10) contained compound B-alone controls and the last two rows (row G and H) contained compound A-alone controls. After the cells grew into monolayer, the medium was discard, followed by addition of 50 μl compound mixture. Then 50 μl SARS-CoV-2 WA strain was added at MOI of 0.01.
# The plate was incubated at 37° C., 5% CO2 for 1 hour. Then 100 μl overlay medium (DMEM+2% FBS+1% Methylcellulose) was added and the plate was further incubated at 37° C., 5% CO2. After 3 days, cells were fixed with 10% neutral formalin for 30 minutes, wash with water for more than 6 times and then stained with 50 μl Crystal Violet (0.5% in methanol/water) for 4 minutes. The staining solution was removed by aspiration and the plate was rinsed with water, and dried thoroughly. Plaques were counted and numbers were recorded to calculate the percentage of inhibition. SynergyFinder was used to analyze the synergistic effect of the two compounds (https://synergyfinder.fimm.fi/synergy/20230202071113839465/). Each combination testing experiment has three replicates.
# SARS-CoV-2 NSP14 = SARS-CoV-2 NSP14 (Severe acute respiratory syndrome coronavirus 2, UniProt P0DTD1); conditions: read-out: NSP14 KD; MST, NSP14 40 nM
# Human RNA MTase (hRNMT) = Human RNA MTase (hRNMT) (Homo sapiens, UniProt O43148); conditions: read-out: IC50-disp
# Human RNA MTase (hRNMT), sequence (O43148 whole entry): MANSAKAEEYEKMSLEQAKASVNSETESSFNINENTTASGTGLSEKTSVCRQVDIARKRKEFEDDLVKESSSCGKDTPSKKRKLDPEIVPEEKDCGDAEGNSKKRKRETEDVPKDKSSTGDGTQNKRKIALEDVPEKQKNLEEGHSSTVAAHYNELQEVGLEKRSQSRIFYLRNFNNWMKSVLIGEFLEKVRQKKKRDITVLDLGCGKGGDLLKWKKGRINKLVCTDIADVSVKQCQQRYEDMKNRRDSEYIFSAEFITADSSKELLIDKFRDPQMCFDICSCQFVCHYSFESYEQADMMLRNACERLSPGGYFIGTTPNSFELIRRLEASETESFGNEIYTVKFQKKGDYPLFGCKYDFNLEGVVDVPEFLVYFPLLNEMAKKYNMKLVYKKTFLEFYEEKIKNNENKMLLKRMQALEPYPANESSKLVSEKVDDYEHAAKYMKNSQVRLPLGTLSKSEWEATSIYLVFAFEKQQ
# SARS-CoV-2 NSP16 MTase = SARS-CoV-2 NSP16 MTase (Severe acute respiratory syndrome coronavirus 2, UniProt P0DTD1); assay: FL-NAH FP displacement assay, NSP16; assay type: binding; conditions: SAH 25 μM, 31.25 μM or 50 μM; NSP16 0.5 μM; p<0.0001
# DENV3 MTase [13] = molecular target: T4, DENV3 MTase; assay: FL-NAH FP binding assay, DENV3 MTase
# WNV MTase [14] = molecular target: T3, WNV MTase; assay type: binding; conditions: read-out: KD of FL-NAH
# YFV MTase [15] = molecular target: T5, YFV MTase; assay type: binding; conditions: read-out: KD of FL-NAH
# ZIKV MTase = ZIKV MTase (Zika virus, UniProt A0A024B7W1); assay type: binding; conditions: read-out: KD of FL-NAH
# ZIKV MTase, sequence (A0A024B7W1 2521-2785 limits assumed): as the sequence (A0A024B7W1 2521-2785 limits assumed) above
# NSP14-NSP10 complex = NSP14-NSP10 complex (Severe acute respiratory syndrome coronavirus 2, UniProt P0DTD1); assay: FL-NAH FP binding assay, NSP14-NSP10 complex; design: species or system SARS-CoV-2; conditions: 50 nM FL-NAH, read-out: binding affinity of FL-NAH
# Procedure: FP was calculated by measuring the parallel and perpendicular fluorescence with excitation and emission wavelengths of 485 nm and 528 nm, respectively. N=3
# Using purified proteins, we investigated whether binding of FL-NAH to the NSP14 MTase could be monitored by FP. […] In addition, we investigated if FL-NAH is also bound to the NSP14/NSP10 complex. […] The results confirmed that NSP10 was not required for the NSP14 MTase function. Since NSP10 had only minimal effects on the NSP14 MTase activity, all the following experiments were performed using the NSP14 MTase alone.
# T1 sequence (Q6YMS4 2492-2753): as the sequence (Q6YMS4 2492-2753) above
smiles,measurement,setting,value
CC(=O)c1cc(O)c2ccccc2c1O [NSC 111552],IC50,"DENV3 NS5 MTase [1]; DENV3, DTT (1 mM)",1.6 µM
same,IC50,"DENV3 NS5 MTase [1]; DENV3, No DTT",1.1 µM
same,EC50,SARS-CoV-2,8.5 µM
same,IC50,SARS-CoV-2 NSP14 MTase [2],7 µM
same,EC50,DENV2,0.32 µM
same,Kd,DENV3 NS5 MTase [3],4.6 µM
same,EC50,ZIKV,0.9 µM
same,viral titer in IFA,[4],dose-dependently reduced the viral titer
same,IC50,WNV N7 MTase,5.2 µM
same,IC50,SARS-CoV-2 NSP14 MTase [5],1.5 µM
same,IC50,SARS-CoV-2 NSP14 MTase [6],5.1 µM
same,IC50,WNV MTase [7],5.7 µM
same,IC50,[8],2.2 µM
same,CC50,[9],~187 µM
same,EC50,DENV2 replicon,5 µM
same,IC50,DENV3 NS5 N7 MTase,3.9 µM
same,IC50,DENV3 MTase [10],1.1 µM
same,IC50,YFV MTase [11],46 µM
same,IC50,ZIKV NS5 MTase,7.3 µM
same,IC50,YFV N7 MTase,26.7 µM
same,viral titer in IFA,[12],dose-dependently reduced the viral titer
same,IC50,ZIKV N7 MTase,12.9 µM
same,maximal ZIP-score,SARS-CoV-2 WA strain; NSC111552 in combination with nirmatrelvir,21
same,maximal ZIP-score,SARS-CoV-2 WA strain; NSC111552 in combination with remdesivir,24
same,Kd,SARS-CoV-2 NSP14,2.1 µM
same,IC50,Human RNA MTase (hRNMT),63.3 µM
CCC(CC)COC(=O)[C@H](C)N[P@](=O)(OC[C@H]1O[C@@](C#N)(c2ccc3c(N)ncnn23)[C@H](O)[C@@H]1O)Oc1ccccc1 [remdesivir],EC50,"SARS-CoV-2 WA strain; Severe acute respiratory syndrome coronavirus 2, Vero C1008, remdesivir alone, read-out: EC50",0.04 µM
same,EC50,"SARS-CoV-2 WA strain; Severe acute respiratory syndrome coronavirus 2, Vero C1008, remdesivir with NSC111552 ([…]), read-out: EC50",0.017 µM
same,EC50 decrease,SARS-CoV-2 WA strain; remdesivir with NSC111552 ([…]),about 2.4 fold
"Nc1ncnc2c1ncn2[C@@H]1O[C@H](CSCC[C@H](N)C(=O)O)[C@@H](O)[C@H]1O [SAH, S-adenosyl-L-homocysteine]",inhibition of FL-NAH binding (FP),SARS-CoV-2 NSP16 MTase,inhibited; also recorded: quenched
same,inhibition of FL-NAH binding (FP),"SARS-CoV-2 NSP14 MTase [6]; SAH 25 μM, 31.25 μM or 50 μM, NSP14 0.5 μM, p<0.0001",inhibited
same,inhibition of FL-NAH binding (FP),ZIKV NS5 MTase,inhibited; also recorded: quenched
COCCn1c2nc(=O)n(-c3ccccc3)c(=O)c-2nc2ccccc21 [NSC 288387],IC50,"DENV3 NS5 MTase [1]; DENV3, DTT (1 mM)",3.9 µM
same,IC50,"DENV3 NS5 MTase [1]; DENV3, No DTT",1.3 µM
same,effect of DTT (1 mM) on potency in inhibiting FL-NAH binding,DENV3 NS5 MTase [1]; with vs without DTT,reducing its potency by about threefold
same,EC50,SARS-CoV-2,5.7 µM
same,IC50,SARS-CoV-2 NSP14 MTase [2],2.5 µM
same,EC50,DENV2,0.53 µM
same,Kd,DENV3 NS5 MTase [3],3.2 µM
same,EC50,ZIKV,0.69 µM
same,viral titer in IFA,[4],dose-dependently reduced the viral titer
same,IC50,WNV N7 MTase,12.2 µM
same,IC50,SARS-CoV-2 NSP14 MTase [5],4.3 µM
same,IC50,SARS-CoV-2 NSP14 MTase [6],2.7 µM
same,IC50,WNV MTase [7],13 µM
same,IC50,[8],2.2 µM
same,CC50,[9],57 µM
same,EC50,DENV2 replicon,11.4 µM
same,IC50,DENV3 NS5 N7 MTase,6 µM
same,IC50,DENV3 MTase [10],1.6 µM
same,IC50,YFV MTase [11],10 µM
same,IC50,ZIKV NS5 MTase,4.9 µM
same,IC50,YFV N7 MTase,11.2 µM
same,viral titer in IFA,[12],dose-dependently reduced the viral titer
same,IC50,ZIKV N7 MTase,6.8 µM
same,Kd,SARS-CoV-2 NSP14,1.5 µM
same,IC50,Human RNA MTase (hRNMT),35.5 µM
"C[S+](CC[C@H](N)C(=O)O)C[C@H]1O[C@@H](n2cnc3c(N)ncnc32)[C@H](O)[C@@H]1O (stereo partly shown) [SAM, S-adenosylmethionine]",inhibition of FL-NAH binding (FP),SARS-CoV-2 NSP16 MTase,quenched
same,inhibition of FL-NAH binding (FP),ZIKV NS5 MTase,quenched
"Nc1ncnc2c1ncn2[C@@H]1O[C@H](CN(CC[C@H](N)C(=O)O)Cc2cn(CCNC(=O)c3ccc4c(c3)C(=O)OC43c4ccc(O)cc4Oc4cc(O)ccc43)nn2)[C@@H](O)[C@H]1O [FL-NAH, fluorescein N-adenosylhomocysteine]",Kd,DENV3 MTase [13],0.61 µM
same,Kd,WNV MTase [14],0.28 µM
same,Kd,YFV MTase [15],3 µM
same,Kd,ZIKV MTase,3.5 µM
same,Kd,NSP14-NSP10 complex,0.81 µM
CC(C)(C)[C@H](NC(=O)C(F)(F)F)C(=O)N1C[C@H]2[C@@H]([C@H]1C(=O)N[C@H](C#N)C[C@@H]1CCNC1=O)C2(C)C [nirmatrelvir],EC50,"SARS-CoV-2 WA strain; Severe acute respiratory syndrome coronavirus 2, Vero C1008, nirmatrelvir alone, read-out: EC50",0.056 µM
same,EC50,"SARS-CoV-2 WA strain; Severe acute respiratory syndrome coronavirus 2, Vero C1008, nirmatrelvir in the presence of NSC111552",~0.031 µM
same,EC50 shift,"SARS-CoV-2 WA strain; nirmatrelvir, in the presence of NSC111552",~1.8 fold
